Test results: patent US9340590B2 (priority 2011, dated 2016)
Where two headings read alike, the source gives them in different places. Positions of bridges follow the written chain, without caps; N, C: chain ends. Non-standard residues stand in square brackets, D forms with d. Residues, ends and D or L forms follow the SMILES beside them. Nva = CCC[C@H](N)C(=O)O; Abu = CC[C@H](N)C(=O)O

How the values were obtained:
Assay in all cases: cell-based
hNav1.7 = hNav1.7 (Homo sapiens, UniProt Q15858); assay type: cell-based; conditions: for IC50: IonWorks Quattro, read-out: IWQ Use Nav1.7
Chain of hNav1.7 (Q15858 whole entry, looked up): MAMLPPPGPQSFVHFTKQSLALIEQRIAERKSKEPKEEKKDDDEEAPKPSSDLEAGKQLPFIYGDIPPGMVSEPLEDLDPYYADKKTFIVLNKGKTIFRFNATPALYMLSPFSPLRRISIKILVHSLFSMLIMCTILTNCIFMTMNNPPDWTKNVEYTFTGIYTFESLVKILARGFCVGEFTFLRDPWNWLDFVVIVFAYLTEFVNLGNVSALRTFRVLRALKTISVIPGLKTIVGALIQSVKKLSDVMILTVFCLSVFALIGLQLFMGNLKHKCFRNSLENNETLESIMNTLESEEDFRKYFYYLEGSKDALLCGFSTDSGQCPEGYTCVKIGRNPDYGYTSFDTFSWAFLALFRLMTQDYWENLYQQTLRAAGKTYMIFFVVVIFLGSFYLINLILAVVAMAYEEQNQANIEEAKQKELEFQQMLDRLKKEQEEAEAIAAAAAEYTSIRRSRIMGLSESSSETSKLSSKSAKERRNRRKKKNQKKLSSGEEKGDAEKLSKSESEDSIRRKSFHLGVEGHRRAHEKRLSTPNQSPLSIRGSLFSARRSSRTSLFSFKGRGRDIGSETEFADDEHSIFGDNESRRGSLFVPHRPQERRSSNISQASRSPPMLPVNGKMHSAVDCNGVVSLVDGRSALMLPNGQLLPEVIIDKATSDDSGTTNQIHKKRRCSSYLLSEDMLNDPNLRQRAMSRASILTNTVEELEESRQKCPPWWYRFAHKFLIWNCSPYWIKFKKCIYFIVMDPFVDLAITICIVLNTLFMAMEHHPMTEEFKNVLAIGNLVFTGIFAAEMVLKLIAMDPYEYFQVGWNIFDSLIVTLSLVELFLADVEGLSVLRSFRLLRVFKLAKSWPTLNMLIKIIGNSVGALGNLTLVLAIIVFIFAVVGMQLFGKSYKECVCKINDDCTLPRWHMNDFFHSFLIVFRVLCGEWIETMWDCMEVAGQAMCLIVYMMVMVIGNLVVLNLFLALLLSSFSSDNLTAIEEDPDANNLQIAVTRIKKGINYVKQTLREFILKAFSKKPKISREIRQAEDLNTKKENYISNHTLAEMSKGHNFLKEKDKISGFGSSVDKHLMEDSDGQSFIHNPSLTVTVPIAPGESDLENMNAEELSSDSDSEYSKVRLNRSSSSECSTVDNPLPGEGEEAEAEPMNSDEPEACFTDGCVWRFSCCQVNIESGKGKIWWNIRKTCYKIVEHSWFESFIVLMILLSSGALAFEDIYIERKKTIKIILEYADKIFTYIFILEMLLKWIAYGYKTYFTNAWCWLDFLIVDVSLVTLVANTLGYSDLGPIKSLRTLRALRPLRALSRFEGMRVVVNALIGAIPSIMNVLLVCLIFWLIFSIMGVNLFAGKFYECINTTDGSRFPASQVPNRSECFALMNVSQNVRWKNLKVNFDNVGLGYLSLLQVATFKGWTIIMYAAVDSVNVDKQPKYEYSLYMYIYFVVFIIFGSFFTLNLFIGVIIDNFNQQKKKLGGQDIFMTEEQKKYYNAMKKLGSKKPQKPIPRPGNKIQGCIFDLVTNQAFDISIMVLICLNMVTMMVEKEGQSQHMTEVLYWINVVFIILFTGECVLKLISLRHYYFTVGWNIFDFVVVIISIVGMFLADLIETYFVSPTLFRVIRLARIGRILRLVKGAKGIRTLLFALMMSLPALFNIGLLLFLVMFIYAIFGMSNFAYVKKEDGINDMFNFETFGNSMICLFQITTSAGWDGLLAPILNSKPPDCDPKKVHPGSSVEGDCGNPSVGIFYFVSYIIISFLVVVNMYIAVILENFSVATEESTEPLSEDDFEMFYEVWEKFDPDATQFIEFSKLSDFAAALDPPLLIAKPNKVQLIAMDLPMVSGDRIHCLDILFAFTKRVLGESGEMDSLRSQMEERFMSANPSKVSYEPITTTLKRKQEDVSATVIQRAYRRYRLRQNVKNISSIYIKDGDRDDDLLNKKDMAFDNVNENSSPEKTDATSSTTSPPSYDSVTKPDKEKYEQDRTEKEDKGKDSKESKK

hNav1.5 = hNav1.5 (Homo sapiens, UniProt Q14524); conditions: IonWorks Quattro, read-out: IWQ Use Nav1.5
Chain of hNav1.5 (Q14524 whole entry, looked up): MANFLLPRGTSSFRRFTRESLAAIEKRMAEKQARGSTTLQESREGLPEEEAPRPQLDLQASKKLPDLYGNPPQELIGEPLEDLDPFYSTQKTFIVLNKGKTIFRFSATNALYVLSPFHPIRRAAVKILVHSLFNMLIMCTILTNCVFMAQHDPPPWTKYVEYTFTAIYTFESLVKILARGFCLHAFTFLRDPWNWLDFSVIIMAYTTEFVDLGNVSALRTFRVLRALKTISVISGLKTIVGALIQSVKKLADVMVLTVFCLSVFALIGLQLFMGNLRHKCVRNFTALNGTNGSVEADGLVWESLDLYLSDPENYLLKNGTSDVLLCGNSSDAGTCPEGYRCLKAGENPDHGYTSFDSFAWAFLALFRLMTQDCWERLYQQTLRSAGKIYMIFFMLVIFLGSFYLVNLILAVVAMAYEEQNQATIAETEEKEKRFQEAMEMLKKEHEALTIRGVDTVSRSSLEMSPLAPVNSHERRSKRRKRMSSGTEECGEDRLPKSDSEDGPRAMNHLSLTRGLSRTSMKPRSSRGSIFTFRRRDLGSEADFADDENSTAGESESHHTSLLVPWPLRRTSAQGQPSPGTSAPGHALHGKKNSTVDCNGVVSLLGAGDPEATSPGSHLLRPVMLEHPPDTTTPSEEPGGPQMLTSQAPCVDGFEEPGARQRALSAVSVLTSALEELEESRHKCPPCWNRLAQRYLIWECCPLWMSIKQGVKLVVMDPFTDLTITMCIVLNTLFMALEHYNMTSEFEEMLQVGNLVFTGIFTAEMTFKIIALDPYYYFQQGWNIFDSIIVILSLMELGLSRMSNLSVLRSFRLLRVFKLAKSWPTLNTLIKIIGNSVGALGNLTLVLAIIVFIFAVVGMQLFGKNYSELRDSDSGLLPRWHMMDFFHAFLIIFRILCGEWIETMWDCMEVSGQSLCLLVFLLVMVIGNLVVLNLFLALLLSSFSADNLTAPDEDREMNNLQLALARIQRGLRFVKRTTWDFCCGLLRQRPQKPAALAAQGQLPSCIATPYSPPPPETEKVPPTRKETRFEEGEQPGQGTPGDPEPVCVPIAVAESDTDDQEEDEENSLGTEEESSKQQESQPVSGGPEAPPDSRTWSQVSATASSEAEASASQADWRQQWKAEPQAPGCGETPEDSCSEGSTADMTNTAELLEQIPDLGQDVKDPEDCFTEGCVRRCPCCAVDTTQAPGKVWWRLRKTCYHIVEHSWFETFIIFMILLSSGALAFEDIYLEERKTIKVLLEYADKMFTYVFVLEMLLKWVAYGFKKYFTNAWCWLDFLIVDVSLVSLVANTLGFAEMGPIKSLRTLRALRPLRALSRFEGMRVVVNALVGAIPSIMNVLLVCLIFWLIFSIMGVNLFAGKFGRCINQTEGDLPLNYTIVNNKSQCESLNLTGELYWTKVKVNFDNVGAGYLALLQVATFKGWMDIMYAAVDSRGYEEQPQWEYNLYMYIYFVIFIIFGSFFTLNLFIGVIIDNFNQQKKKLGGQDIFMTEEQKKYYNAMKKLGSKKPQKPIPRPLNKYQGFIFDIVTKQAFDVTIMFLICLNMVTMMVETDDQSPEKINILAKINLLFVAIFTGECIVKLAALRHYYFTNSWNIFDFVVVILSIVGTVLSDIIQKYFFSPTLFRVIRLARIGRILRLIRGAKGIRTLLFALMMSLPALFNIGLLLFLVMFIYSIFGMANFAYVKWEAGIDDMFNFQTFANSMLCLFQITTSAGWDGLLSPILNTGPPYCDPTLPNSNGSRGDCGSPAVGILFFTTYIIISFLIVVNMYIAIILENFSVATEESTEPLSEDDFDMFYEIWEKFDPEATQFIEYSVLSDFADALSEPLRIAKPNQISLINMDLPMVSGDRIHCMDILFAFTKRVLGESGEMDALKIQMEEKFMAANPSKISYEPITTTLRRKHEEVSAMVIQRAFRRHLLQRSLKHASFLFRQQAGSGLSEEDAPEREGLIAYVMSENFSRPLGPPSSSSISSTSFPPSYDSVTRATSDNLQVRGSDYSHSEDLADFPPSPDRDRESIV

hNav1.4 = hNav1.4 (Homo sapiens, UniProt P35499); conditions: IonWorks Quattro, read-out: IWQ Use Nav1.4
hNav1.3 = hNav1.3 (Homo sapiens, UniProt Q9NY46); conditions: for IC50: IonWorks Quattro, read-out: IWQ Use Nav1.3
[1] = clamped to −110 mV, depolarized to −10 mV, 5 min after compound, n=2

Row | SMILES | IC50 (hNav1.7; [1]) | IC50 (hNav1.5; [1]) | IC50 (hNav1.4; [1]) | IC50 (hNav1.3; [1]) | IC50 (hNav1.7; use-dependent block, hNav1.7) | Nav1.4/Nav1.7 (hNav1.7; ratio of IWQ Use values, Nav1.4 over Nav1.7) | IC50 (hNav1.5; use-dependent block, hNav1.5) | IC50 (hNav1.4; use-dependent block, hNav1.4) | IC50 (hNav1.3; use-dependent block, hNav1.3) | Nav1.4/Nav1.3 (hNav1.3; ratio of IWQ Use values, Nav1.4 over Nav1.3) | Nav1.7/Nav1.3 (hNav1.3; ratio of IWQ Use values, Nav1.7 over Nav1.3)
1 | CC(C)C[C@H](NC(=O)[C@H](CCCCN)NC(=O)[C@H](Cc1ccc(O)cc1)NC(=O)[C@H](CCCCN)NC(=O)[C@@H]1CSSC[C@@H]2NC(=O)[C@H](CCCCN)NC(=O)[C@H](CC(=O)O)NC(=O)[C@H](CC(N)=O)NC(=O)[C@H](CC(=O)O)NC(=O)[C@@H]3CCCN3C(=O)[C@H](CC(=O)O)NC(=O)[C@@H]3CSSC[C@H](NC(=O)[C@H](CCCCN)NC(=O)[C@H](Cc4ccc(O)cc4)NC(=O)[C@H](CC(N)=O)NC(=O)[C@H](CCC(=O)O)NC(=O)[C@H](CSSC[C@H](NC(=O)[C@@H](N)CC(=O)O)C(=O)N[C@@H](CC(C)C)C(=O)NCC(=O)N[C@@H](Cc4c[nH]c5ccccc45)C(=O)N[C@@H](Cc4ccccc4)C(=O)N[C@@H](CCCCN)C(=O)NCC(=O)N3)NC2=O)C(=O)N[C@@H](CC(N)=O)C(=O)N[C@@H](CCCNC(=N)N)C(=O)N[C@@H](CCCNC(=N)N)C(=O)N[C@@H](CCC(=O)O)C(=O)N[C@@H](CCC(N)=O)C(=O)N[C@@H](Cc2c[nH]c3ccccc23)C(=O)N1)C(N)=O [SEQ ID NO: 469] (H-DCLGWFKGCDPDNDKCCENYKCNRREQWCKYKL-NH2; disulfide 2-17, 9-22, 16-29) | 9.25 µM | 10.4 µM | 11 µM | 4.92 µM | – | – | – | – | – | – | –
2 | CC(C)C[C@@H]1NC(=O)[C@@H](NC(=O)[C@@H](N)CC(=O)O)CSSC[C@@H]2NC(=O)[C@@H]3CSSC[C@@H](C(=O)N[C@@H](CCCCN)C(=O)N[C@@H](Cc4ccc(O)cc4)C(=O)N[C@@H](CCCCN)C(=O)N[C@@H](CC(C)C)C(=O)N[C@@H](Cc4c[nH]c5ccccc45)C(=O)N[C@@H](CCCCN)C(=O)O)NC(=O)[C@H](Cc4c[nH]c5ccccc45)NC(=O)[C@H](CCCCN)NC(=O)[C@H](CC(=O)O)NC(=O)[C@H](CCCNC(=N)N)NC(=O)[C@H](CCCNC(=N)N)NC(=O)[C@H](CC(N)=O)NC(=O)[C@H](CSSC[C@H](NC(=O)CNC(=O)[C@H](CCCCN)NC(=O)[C@H](Cc4ccccc4)NC(=O)[C@H](Cc4c[nH]c5ccccc45)NC(=O)CNC1=O)C(=O)N[C@@H](CC(=O)O)C(=O)N1CCC[C@H]1C(=O)N[C@@H](CC(=O)O)C(=O)N[C@@H](CC(N)=O)C(=O)N[C@@H](CC(=O)O)C(=O)N[C@@H](CCCCN)C(=O)N3)NC(=O)[C@H](CCCCN)NC(=O)[C@H](Cc1ccc(O)cc1)NC(=O)[C@H](CC(N)=O)NC(=O)[C@H](CCC(=O)O)NC2=O [SEQ ID NO: 473] (H-DCLGWFKGCDPDNDKCCENYKCNRRDKWCKYKLWK-OH; disulfide 2-17, 9-22, 16-29) | 10.4 µM | 7.6 µM | 10 µM | 3.5 µM | – | – | – | – | – | – | –
3 | CC(C)C[C@@H]1NC(=O)[C@@H](NC(=O)[C@@H](N)CC(=O)O)CSSC[C@@H]2NC(=O)[C@@H]3CSSC[C@@H](C(=O)N[C@@H](CCCCN)C(=O)N[C@@H](Cc4ccc(O)cc4)C(=O)N[C@@H](CCCCN)C(=O)N[C@@H](CC(C)C)C(=O)N[C@@H](Cc4c[nH]c5ccccc45)C(=O)O)NC(=O)[C@H](Cc4c[nH]c5ccccc45)NC(=O)[C@H](CCCCN)NC(=O)[C@H](CC(=O)O)NC(=O)[C@H](CCCNC(=N)N)NC(=O)[C@H](CCCNC(=N)N)NC(=O)[C@H](CC(N)=O)NC(=O)[C@H](CSSC[C@H](NC(=O)CNC(=O)[C@H](CCCCN)NC(=O)[C@H](Cc4ccccc4)NC(=O)[C@H](Cc4c[nH]c5ccccc45)NC(=O)CNC1=O)C(=O)N[C@@H](CC(=O)O)C(=O)N1CCC[C@H]1C(=O)N[C@@H](CC(=O)O)C(=O)N[C@@H](CC(N)=O)C(=O)N[C@@H](CC(=O)O)C(=O)N[C@@H](CCCCN)C(=O)N3)NC(=O)[C@H](CCCCN)NC(=O)[C@H](Cc1ccc(O)cc1)NC(=O)[C@H](CC(N)=O)NC(=O)[C@H](CCC(=O)O)NC2=O [SEQ ID NO: 474] (H-DCLGWFKGCDPDNDKCCENYKCNRRDKWCKYKLW-OH; disulfide 2-17, 9-22, 16-29) | 4 µM | 7.9 µM | 10.5 µM | 1.4 µM | – | – | – | – | – | – | –
4 | CC(C)C[C@@H]1NC(=O)[C@@H](NC(=O)[C@@H](N)CC(=O)O)CSSC[C@@H]2NC(=O)[C@@H]3CSSC[C@@H](C(=O)N[C@@H](CCCCN)C(=O)N[C@@H](Cc4ccc(O)cc4)C(=O)N[C@@H](CCCCN)C(=O)N[C@@H](CC(C)C)C(=O)N[C@@H](Cc4c[nH]c5ccccc45)C(=O)N[C@@H](CCCCN)C(=O)O)NC(=O)[C@H](Cc4c[nH]c5ccccc45)NC(=O)[C@H](CCCCN)NC(=O)[C@H](CC(=O)O)NC(=O)[C@H](CCCNC(=N)N)NC(=O)[C@H](CCCNC(=N)N)NC(=O)[C@H](CC(N)=O)NC(=O)[C@H](CSSC[C@H](NC(=O)CNC(=O)[C@H](CCCCN)NC(=O)[C@H](Cc4ccccc4)NC(=O)[C@H](Cc4c[nH]c5ccccc45)NC(=O)CNC1=O)C(=O)N[C@@H](CC(=O)O)C(=O)N1CCC[C@H]1C(=O)N[C@@H](CC(=O)O)C(=O)N[C@@H](CC(N)=O)C(=O)N[C@@H](CC(=O)O)C(=O)N[C@@H](CCCCN)C(=O)N3)NC(=O)[C@H](CCCCN)NC(=O)[C@H](Cc1ccc(O)cc1)NC(=O)CNC(=O)[C@H](CCC(=O)O)NC2=O [compound 471] (H-DCLGWFKGCDPDNDKCCEGYKCNRRDKWCKYKLWK-OH; disulfide 2-17, 9-22, 16-29) | – | – | – | – | 9.6 µM | 1.8 | 14.6 µM | 17.4 µM | 1.7 µM | 10.0 | 5.5
5 | CC[C@@H]1NC(=O)[C@@H]2CSSC[C@@H](C(=O)N[C@@H](CCCCN)C(=O)N[C@@H](Cc3ccc(O)cc3)C(=O)N[C@H](C(=O)N[C@@H](Cc3ccccc3)C(N)=O)C(C)C)NC(=O)[C@H](Cc3c[nH]c4ccccc34)NC(=O)[C@H](CCCCN)NC(=O)[C@H](Cc3c[nH]cn3)NC(=O)[C@H]([C@@H](C)O)NC(=O)[C@H](CCCNC(=N)N)NC(=O)[C@H](CO)NC(=O)[C@H](CSSC[C@H](NC(=O)[C@H](CCCCN)NC(=O)[C@H](CCCNC(=N)N)NC(=O)[C@H](CCSC)NC(=O)[C@H](C)NC(=O)CNC(=O)[C@H](CC(C)C)NC(=O)[C@H](CC)NC(=O)[C@@H](N)CC(=O)O)C(=O)N[C@@H](CC(=O)O)C(=O)N3CCC[C@H]3C(=O)N[C@@H](CC(=O)O)C(=O)N[C@@H](CC(N)=O)C(=O)N[C@@H](CC(=O)O)C(=O)N[C@@H](CCCCN)C(=O)N2)NC(=O)[C@H](C(C)C)NC(=O)[C@H](CC(C)C)NC(=O)[C@H](CC(N)=O)NC(=O)[C@@H]2CCCN2C(=O)[C@H](CCCNC(=N)N)NC1=O [compound 716] (H-D[Abu]LGAMRKCDPDNDKC[Abu]RPNLVCSRTHKWCKYVF-NH2; disulfide 9-23, 16-30) | – | – | – | – | 3.7 µM | – | 49 µM | > 50 µM | > 5 µM | – | –
6 | CCC[C@H](NC(=O)CNC(=O)[C@H](CC(C)C)NC(=O)[C@H](CC)NC(=O)[C@@H](N)CC(=O)O)C(=O)N[C@@H](CC(C)C)C(=O)N[C@@H](CCCNC(=N)N)C(=O)N[C@@H](CCCCN)C(=O)N[C@H]1CSSC[C@@H]2NC(=O)[C@H](C(C)C)NC(=O)[C@H](CC(C)C)NC(=O)[C@H](CC(N)=O)NC(=O)[C@@H]3CCCN3C(=O)[C@H](CCCNC(=N)N)NC(=O)[C@H](CC)NC(=O)[C@H](CSSC[C@@H](C(=O)N[C@@H](CCCCN)C(=O)N[C@@H](Cc3ccc(O)cc3)C(=O)N[C@H](C(=O)N[C@@H](Cc3ccccc3)C(N)=O)C(C)C)NC(=O)[C@H](Cc3c[nH]c4ccccc34)NC(=O)[C@H](CCC(=O)O)NC(=O)[C@H](Cc3c[nH]cn3)NC(=O)[C@H]([C@@H](C)O)NC(=O)[C@H](CCCNC(=N)N)NC(=O)[C@H](CO)NC2=O)NC(=O)[C@H](CCCCN)NC(=O)[C@H](CC(=O)O)NC(=O)[C@H](CC(N)=O)NC(=O)[C@H](CC(=O)O)NC(=O)[C@@H]2CCCN2C(=O)[C@H]([C@@H](C)CC)NC1=O [compound 717] (H-D[Abu]LG[Nva]LRKCIPDNDKC[Abu]RPNLVCSRTHEWCKYVF-NH2; disulfide 9-23, 16-30) | – | – | – | – | > 5 µM | – | > 50 µM | > 50 µM | > 5 µM | – | –
7 | CC[C@H](NC(=O)CNC(=O)[C@H](CC(C)C)NC(=O)[C@H](CC)NC(=O)[C@@H](N)CC(=O)O)C(=O)N[C@@H](CC(C)C)C(=O)N[C@@H](CCCNC(=N)N)C(=O)N[C@@H](CCCCN)C(=O)N[C@H]1CSSC[C@@H]2NC(=O)[C@H](C(C)C)NC(=O)[C@H](CC(C)C)NC(=O)[C@H](CC(N)=O)NC(=O)[C@@H]3CCCN3C(=O)[C@H](CCCNC(=N)N)NC(=O)[C@H](CC)NC(=O)[C@H](CSSC[C@@H](C(=O)N[C@@H](CCCCN)C(=O)N[C@@H](Cc3ccc(O)cc3)C(=O)N[C@H](C(=O)N[C@@H](Cc3ccccc3)C(N)=O)C(C)C)NC(=O)[C@H](Cc3c[nH]c4ccccc34)NC(=O)[C@H](CCC(=O)O)NC(=O)[C@H](Cc3c[nH]cn3)NC(=O)[C@H]([C@@H](C)O)NC(=O)[C@H](CCCNC(=N)N)NC(=O)[C@H](CO)NC2=O)NC(=O)[C@H](CCCCN)NC(=O)[C@H](CC(=O)O)NC(=O)[C@H](CC(N)=O)NC(=O)[C@H](CC(=O)O)NC(=O)[C@@H]2CCCN2C(=O)[C@H]([C@@H](C)CC)NC1=O [compound 718] (H-D[Abu]LG[Abu]LRKCIPDNDKC[Abu]RPNLVCSRTHEWCKYVF-NH2; disulfide 9-23, 16-30) | – | – | – | – | 4.3 µM | – | > 50 µM | > 50 µM | > 5 µM | – | –
